# Source: publication PMC3382171 (PLoS ONE, 2012)
# What was measured:
# Assay in all cases: biochemical
# Conditions in all cases: read-out: Upstate KSS % inhibition at 1uM
# [1] = target: T1, Snk (Homo sapiens, UniProt Q9NYY3)
# T1 construct: gene PLK2
# Method: (§1) In these selectivity assays the concentration of ATP was set to the Km value of ATP for each kinase tested to allow for a relative potency comparison between the various kinases. The compounds were tested at 1 µM final concentration. […] (A) Kinase selectivity screen (KSS) performed at Upstate Biotechnology. […] (B) KSS performed at University of Dundee (Division of Signal Transduction Therapy). […] (PDF) Click here for additional data file.
# [2] = target: T2, MSK1 (Homo sapiens, UniProt O75582)
# T2 construct: gene RPS6KA5
# Method: as §1
# [3] = target: LIMK1 (Homo sapiens, UniProt P53667)
# Method: as §1
# [4] = target: MELK (Homo sapiens, UniProt Q14680)
# Method: as §1
# [5] = target: T3, PKBbeta (Homo sapiens, UniProt P31751)
# T3 construct: gene AKT2
# Method: as §1
# [6] = target: T4, CaMKIV (Homo sapiens, UniProt Q16566)
# T4 construct: gene CAMK4
# Method: as §1
# [7] = target: T5, GSK3alpha (Homo sapiens, UniProt P49840)
# T5 construct: gene GSK3A
# Method: as §1
# [8] = target: GRK3 (Homo sapiens, UniProt P35626)
# Method: as §1
# [9] = target: CSK (Homo sapiens, UniProt P41240)
# Method: as §1
# [10] = target: T6, PDGFRbeta (Homo sapiens, UniProt P09619)
# T6 construct: gene PDGFRB
# Method: as §1
# [11] = target: T7, PKCdelta (Homo sapiens, UniProt Q05655)
# T7 construct: gene PRKCD
# Method: as §1
# [12] = target: T8, PI3Kg (Homo sapiens, UniProt P48736)
# T8 construct: gene PIK3CG
# Method: as §1
# [13] = target: HIPK2 (Homo sapiens, UniProt Q9H2X6)
# Method: as §1
# [14] = target: T9, ROCK-11 (Homo sapiens, UniProt O75116)
# T9 construct: gene ROCK2
# Method: as §1
# [15] = target: IRAK4 (Homo sapiens, UniProt Q9NWZ3)
# Method: as §1
# [16] = target: T10, RSK2 (Homo sapiens, UniProt P51812)
# T10 construct: gene RPS6KA3
# Method: as §1
# [17] = target: CDK7/cyclinH (Homo sapiens, UniProt P50613)
# Method: as §1
# [18] = target: T11, ZIPK (Homo sapiens, UniProt O43293)
# T11 construct: gene DAPK3
# Method: as §1
# [19] = target: T12, JNK2alpha2 (Homo sapiens, UniProt P45984)
# T12 construct: gene MAPK9; isoform alpha2
# Method: as §1
# [20] = target: T13, PKCalpha (Homo sapiens, UniProt P17252)
# T13 construct: gene PRKCA
# Method: as §1
# [21] = target: SRPK2 (Homo sapiens, UniProt P78362)
# Method: as §1
# [22] = target: T14, SAPK2b (Homo sapiens, UniProt Q15759)
# T14 construct: gene MAPK11
# Method: as §1
# [23] = target: T15, CHK2 (Homo sapiens, UniProt O96017)
# T15 construct: gene CHEK2
# Method: as §1
# [24] = target: T16, MKK7beta (Homo sapiens, UniProt O14733)
# T16 construct: gene MAP2K7; isoform beta
# Method: as §1
# [25] = target: PAK4 (Homo sapiens, UniProt O96013)
# Method: as §1
# [26] = target: T17, mouse MKK4 (Mus musculus, UniProt P47809)
# T17 construct: gene Map2k4
# Method: as §1
# [27] = target: T18, Pyk2 (Homo sapiens, UniProt Q14289)
# T18 construct: gene PTK2B
# Method: as §1
# [28] = target: T19, TrkB (Homo sapiens, UniProt Q16620)
# T19 construct: gene NTRK2
# Method: as §1
# [29] = target: CDK3/cyclinE (Homo sapiens, UniProt Q00526)
# Method: as §1
# [30] = target: T20, PKCtheta (Homo sapiens, UniProt Q04759)
# T20 construct: gene PRKCQ
# Method: as §1
# [31] = target: BLK (Homo sapiens, UniProt P51451)
# Method: as §1
# [32] = target: T21, PRAK (Homo sapiens, UniProt Q8IW41)
# T21 construct: gene MAPKAPK5
# Method: as §1
# [33] = target: Lyn (Homo sapiens, UniProt P07948)
# Method: as §1
# [34] = target: T22, PKBgamma (Homo sapiens, UniProt Q9Y243)
# T22 construct: gene AKT3
# Method: as §1
# T17 sequence (P47809 whole entry): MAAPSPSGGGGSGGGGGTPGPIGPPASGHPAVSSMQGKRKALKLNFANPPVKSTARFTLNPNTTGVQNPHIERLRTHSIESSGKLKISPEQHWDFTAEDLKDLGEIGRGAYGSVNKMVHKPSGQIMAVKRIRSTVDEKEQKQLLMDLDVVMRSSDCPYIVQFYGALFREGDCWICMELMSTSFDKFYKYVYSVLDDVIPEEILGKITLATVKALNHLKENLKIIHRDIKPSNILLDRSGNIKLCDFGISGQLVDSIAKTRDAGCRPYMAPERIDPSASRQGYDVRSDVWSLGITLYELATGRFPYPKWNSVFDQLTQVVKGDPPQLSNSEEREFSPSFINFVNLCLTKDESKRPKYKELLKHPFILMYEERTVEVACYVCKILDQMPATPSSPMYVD
# T19 sequence (Q16620 whole entry): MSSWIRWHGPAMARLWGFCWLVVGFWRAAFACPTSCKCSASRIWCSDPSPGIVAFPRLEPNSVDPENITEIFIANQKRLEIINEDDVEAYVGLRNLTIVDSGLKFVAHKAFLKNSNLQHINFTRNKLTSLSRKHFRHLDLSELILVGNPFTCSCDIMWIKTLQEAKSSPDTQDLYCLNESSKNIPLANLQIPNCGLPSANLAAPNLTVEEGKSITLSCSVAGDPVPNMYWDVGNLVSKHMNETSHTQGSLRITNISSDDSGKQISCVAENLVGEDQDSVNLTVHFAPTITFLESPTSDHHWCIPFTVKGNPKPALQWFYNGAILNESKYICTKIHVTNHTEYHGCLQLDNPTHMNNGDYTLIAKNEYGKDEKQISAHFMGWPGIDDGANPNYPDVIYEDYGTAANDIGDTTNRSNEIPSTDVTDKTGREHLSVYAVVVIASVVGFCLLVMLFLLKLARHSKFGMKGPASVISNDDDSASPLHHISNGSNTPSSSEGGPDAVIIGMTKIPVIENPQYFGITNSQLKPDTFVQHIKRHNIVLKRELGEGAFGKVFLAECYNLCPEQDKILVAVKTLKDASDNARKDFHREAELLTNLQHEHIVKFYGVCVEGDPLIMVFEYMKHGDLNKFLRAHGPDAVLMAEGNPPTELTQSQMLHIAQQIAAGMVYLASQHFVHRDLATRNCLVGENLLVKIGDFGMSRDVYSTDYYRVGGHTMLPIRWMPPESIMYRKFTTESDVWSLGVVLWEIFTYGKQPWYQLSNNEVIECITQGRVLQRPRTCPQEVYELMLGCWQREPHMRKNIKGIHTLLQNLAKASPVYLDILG
# Chain of CDK7/cyclinH (P50613 whole entry): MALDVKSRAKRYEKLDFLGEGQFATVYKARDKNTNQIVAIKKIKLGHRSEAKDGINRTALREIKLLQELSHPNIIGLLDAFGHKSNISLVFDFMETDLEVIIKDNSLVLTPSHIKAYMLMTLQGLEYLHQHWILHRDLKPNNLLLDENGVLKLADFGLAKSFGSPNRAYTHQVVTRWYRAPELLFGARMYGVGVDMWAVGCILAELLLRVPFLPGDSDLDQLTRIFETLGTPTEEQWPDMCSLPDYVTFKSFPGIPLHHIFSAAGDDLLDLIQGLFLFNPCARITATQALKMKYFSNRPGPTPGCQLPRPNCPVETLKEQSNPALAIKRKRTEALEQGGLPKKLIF
# Chain of CDK3/cyclinE (Q00526 whole entry): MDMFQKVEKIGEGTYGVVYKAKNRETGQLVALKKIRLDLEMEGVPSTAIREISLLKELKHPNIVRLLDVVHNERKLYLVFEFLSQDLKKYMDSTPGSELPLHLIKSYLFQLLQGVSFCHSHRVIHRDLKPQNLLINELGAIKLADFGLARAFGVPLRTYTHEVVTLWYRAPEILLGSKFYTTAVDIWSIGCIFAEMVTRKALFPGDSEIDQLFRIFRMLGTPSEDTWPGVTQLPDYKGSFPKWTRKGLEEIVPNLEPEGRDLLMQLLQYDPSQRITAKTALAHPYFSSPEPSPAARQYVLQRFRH
# Chain of CDK3/cyclinE (P24864 whole entry partner): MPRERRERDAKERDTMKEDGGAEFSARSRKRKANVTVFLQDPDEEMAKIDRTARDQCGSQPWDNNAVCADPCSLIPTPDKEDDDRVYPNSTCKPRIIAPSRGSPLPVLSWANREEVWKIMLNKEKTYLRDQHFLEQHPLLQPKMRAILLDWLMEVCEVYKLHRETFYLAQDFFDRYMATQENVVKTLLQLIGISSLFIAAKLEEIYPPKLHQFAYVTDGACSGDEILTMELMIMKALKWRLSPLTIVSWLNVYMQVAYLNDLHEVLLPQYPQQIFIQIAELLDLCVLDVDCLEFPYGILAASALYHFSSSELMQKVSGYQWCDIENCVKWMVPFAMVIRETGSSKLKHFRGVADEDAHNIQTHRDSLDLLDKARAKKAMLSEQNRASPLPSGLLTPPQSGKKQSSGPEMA
# T22 sequence (Q9Y243 whole entry): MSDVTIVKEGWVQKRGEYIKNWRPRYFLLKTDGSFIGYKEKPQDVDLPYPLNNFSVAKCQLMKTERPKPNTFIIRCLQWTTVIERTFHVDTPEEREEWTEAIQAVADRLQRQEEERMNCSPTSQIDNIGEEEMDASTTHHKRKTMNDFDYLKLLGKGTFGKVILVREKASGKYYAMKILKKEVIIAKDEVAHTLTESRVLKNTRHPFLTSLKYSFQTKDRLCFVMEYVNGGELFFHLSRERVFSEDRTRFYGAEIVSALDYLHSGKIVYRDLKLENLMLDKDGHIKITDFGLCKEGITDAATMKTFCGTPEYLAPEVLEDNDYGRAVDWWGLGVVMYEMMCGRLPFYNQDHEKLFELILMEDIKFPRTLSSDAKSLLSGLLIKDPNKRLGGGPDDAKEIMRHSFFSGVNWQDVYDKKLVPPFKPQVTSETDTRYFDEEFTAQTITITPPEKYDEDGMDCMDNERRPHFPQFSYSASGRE
# Chain of PAK4 (O96013 whole entry): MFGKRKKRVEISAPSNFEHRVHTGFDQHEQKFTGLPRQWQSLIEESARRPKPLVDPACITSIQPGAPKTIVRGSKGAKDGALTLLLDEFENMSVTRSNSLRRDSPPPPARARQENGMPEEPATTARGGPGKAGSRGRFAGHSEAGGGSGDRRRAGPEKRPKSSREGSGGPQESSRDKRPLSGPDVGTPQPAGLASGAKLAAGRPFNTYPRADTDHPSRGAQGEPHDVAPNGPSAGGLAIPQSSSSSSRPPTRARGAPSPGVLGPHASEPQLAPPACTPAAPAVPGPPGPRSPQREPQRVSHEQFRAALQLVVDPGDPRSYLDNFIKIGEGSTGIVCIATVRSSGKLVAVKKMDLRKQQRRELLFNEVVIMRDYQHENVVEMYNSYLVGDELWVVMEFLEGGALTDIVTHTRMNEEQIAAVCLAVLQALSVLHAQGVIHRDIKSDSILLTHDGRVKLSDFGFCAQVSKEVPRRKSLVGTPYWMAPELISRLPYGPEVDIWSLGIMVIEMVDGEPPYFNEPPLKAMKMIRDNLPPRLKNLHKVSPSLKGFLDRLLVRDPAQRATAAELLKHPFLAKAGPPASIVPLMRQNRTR
# T6 sequence (P09619 whole entry): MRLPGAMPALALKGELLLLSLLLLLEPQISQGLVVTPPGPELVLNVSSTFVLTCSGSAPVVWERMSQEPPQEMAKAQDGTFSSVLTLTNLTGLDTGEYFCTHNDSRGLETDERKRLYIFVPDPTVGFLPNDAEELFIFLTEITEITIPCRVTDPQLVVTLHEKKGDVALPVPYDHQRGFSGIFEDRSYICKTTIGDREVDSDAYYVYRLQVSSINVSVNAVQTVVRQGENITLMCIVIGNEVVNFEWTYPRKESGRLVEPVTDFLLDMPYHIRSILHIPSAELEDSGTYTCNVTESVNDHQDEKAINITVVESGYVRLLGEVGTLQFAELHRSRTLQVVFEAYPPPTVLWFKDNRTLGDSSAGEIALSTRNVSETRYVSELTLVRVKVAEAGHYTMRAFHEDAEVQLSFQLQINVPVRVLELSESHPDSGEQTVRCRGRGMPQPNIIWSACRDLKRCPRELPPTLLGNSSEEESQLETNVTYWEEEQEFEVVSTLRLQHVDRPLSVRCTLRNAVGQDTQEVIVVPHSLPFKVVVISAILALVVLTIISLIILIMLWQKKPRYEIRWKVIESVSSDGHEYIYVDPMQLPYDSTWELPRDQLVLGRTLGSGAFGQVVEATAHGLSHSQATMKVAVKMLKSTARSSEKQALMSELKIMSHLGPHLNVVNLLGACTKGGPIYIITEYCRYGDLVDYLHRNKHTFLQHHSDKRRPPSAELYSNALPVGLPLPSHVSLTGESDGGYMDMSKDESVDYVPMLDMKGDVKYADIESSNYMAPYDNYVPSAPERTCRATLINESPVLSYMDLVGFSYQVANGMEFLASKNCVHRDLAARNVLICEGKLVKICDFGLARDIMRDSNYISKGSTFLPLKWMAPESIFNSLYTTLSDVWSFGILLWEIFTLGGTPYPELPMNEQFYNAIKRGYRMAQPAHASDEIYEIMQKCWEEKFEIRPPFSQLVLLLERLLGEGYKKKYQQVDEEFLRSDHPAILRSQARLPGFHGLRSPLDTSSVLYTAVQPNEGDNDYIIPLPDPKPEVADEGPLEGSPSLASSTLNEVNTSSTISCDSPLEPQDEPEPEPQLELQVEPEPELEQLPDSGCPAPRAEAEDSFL
# Chain of Lyn (P07948 whole entry): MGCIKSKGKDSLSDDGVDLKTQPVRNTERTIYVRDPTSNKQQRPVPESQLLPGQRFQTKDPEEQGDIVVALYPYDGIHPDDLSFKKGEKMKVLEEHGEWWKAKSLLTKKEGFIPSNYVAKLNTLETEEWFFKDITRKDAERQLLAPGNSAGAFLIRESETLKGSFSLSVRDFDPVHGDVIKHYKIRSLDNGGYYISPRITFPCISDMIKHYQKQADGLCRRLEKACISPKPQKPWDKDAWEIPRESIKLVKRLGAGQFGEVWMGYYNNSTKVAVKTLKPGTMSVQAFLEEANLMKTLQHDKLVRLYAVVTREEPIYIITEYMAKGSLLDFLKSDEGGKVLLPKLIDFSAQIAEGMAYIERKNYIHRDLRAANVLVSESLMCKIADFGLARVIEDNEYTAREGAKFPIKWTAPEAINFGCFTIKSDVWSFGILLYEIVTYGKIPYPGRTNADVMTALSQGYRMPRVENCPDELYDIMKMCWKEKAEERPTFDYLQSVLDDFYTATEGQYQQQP
structure (smiles),measurement,setting,value
"OCCn1cc(-c2cnc3nnn(Cc4ccc5ncccc5c4)c3n2)cn1 [METi, PF-04217903]",inhibition at 1 µM,[1],-11%
same,inhibition at 1 µM,[2],-5%
same,inhibition at 1 µM,[3],-7%
same,inhibition at 1 µM,[4],2%
same,inhibition at 1 µM,[5],-6%
same,inhibition at 1 µM,[6],-4%
same,inhibition at 1 µM,[7],-7%
same,inhibition at 1 µM,[8],-1%
same,inhibition at 1 µM,[9],-23%
same,inhibition at 1 µM,[10],-27%
same,inhibition at 1 µM,[11],10%
same,inhibition at 1 µM,[12],1%
same,inhibition at 1 µM,[13],8%
same,inhibition at 1 µM,[14],0%
same,inhibition at 1 µM,[15],11%
same,inhibition at 1 µM,[16],-22%
same,inhibition at 1 µM,[17],-14%
same,inhibition at 1 µM,[18],0%
same,inhibition at 1 µM,[19],-2%
same,inhibition at 1 µM,[20],-7%
same,inhibition at 1 µM,[21],-2%
same,inhibition at 1 µM,[22],1%
same,inhibition at 1 µM,[23],0%
same,inhibition at 1 µM,[24],-2%
same,inhibition at 1 µM,[25],1%
same,inhibition at 1 µM,[26],-2%
same,inhibition at 1 µM,[27],-17%
same,inhibition at 1 µM,[28],10%
same,inhibition at 1 µM,[29],5%
same,inhibition at 1 µM,[30],-10%
same,inhibition at 1 µM,[31],5%
same,inhibition at 1 µM,[32],-2%
same,inhibition at 1 µM,[33],2%
same,inhibition at 1 µM,[34],5%
